One assay has as its target human recombinant MMP-9 (Homo sapiens, UniProt P14780). The assay is described as follows: In vitro specificity reaction with off-target protease. The note with it: free peptide; 15 nM human recombinant MMP-9; TCNB buffer; 37 °C, 1 h; fluorescence (Figure S2).
Another assay concerns the target human α-thrombin (Homo sapiens, UniProt P00734). The assay is described as above. The following applies: free peptide; 13.5 nM human α-thrombin; TCNB buffer; 37 °C, 1 h; fluorescence (Figure S2).

Chain of human recombinant MMP-9 (P14780 107-444 limits assumed): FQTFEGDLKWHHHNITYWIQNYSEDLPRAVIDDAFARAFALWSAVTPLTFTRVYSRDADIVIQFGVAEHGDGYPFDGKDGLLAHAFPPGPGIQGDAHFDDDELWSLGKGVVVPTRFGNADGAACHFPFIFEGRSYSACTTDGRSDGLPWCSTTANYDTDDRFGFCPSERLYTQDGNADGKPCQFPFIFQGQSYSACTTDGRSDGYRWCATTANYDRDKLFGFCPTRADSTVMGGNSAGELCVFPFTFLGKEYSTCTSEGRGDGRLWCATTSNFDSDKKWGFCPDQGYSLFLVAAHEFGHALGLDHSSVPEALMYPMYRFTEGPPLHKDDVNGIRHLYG

Take “Biotin-GGSGG-K(5FAM)-QEVYGAMP-K(CPQ2)-C-NH2 [calpain substrate peptide]”: the “activation after incubation with MMP9” value at human recombinant MMP-9 is given as “did not activate”. For the same substance, the “activation after incubation with α-thrombin” value on human α-thrombin is given as “did not activate”.
